Results on 57 compounds are retold here after ChEMBL document CHEMBL1201862, “PubChem BioAssay data set” (2004).

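A five-concentration, 48-hour dose response in 96-well plates underlies each endpoint, interpolated linearly between surrounding concentrations. Abbreviation: GI50, concentration required for 50% inhibition of growth.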 Activity calls are given as the source filed them. Cut-off read from the data, not from the text of the source: active = GI50 up to about 1.1 µM and inactive = higher. Where a SMILES comes first, the peptide text is derived from it.

Test systems include Hs-578T; LXFL 529; DLD-1; M19-MEL; KM-20L2; SNB-78; HOP-18; XF498.
Common to all, as to assay: growth of human tumour cells (NCI), 48 h

Regarding `CC12CCC(=O)C=C1CCC1C2CCC2(C)C(C(=O)Cn3cnc4c(=S)nc[nH]c43)CCC12` (centres undefined), the GI50 in the test with Hs-578T is 52 µM (inactive).

On to `Fc1ccccc1-c1cc(S)c2cc3c(cc2n1)OCO3`, for which the GI50 in the test on Hs-578T was 5.24 µM (inactive).

As for `COc1cc(/C=C2\CCc3cc(OC)c(OC)cc3C2=O)cc(OC)c1`, in the test with Hs-578T, the GI50 was 23.9 µM (inactive).

On to `CC(C)(CCc1nc2ccccc2[nH]1)C(=O)O`, for which the GI50 in the test on Hs-578T is > 100 µM (inactive).

Turning to `Cc1cc2nc3[nH]c4c(Cl)cc(Cl)cc4c3nc2cc1C`, the GI50 in the test on Hs-578T is > 100 µM (inactive).

As to `CS(=O)(=O)N1CC(CCl)c2ccc(NO)cc21` (centres undefined), in the test with Hs-578T, the GI50 is 23.1 µM (inactive).

For `C=C(c1ccccc1)c1ccccc1-c1cc(-c2ccccc2)cc(-c2ccccc2)n1`, in the test on Hs-578T, the GI50 was > 100 µM (inactive).

For the compound `COc1ccc(N/N=C(\CCN(C)C)c2ccccc2)cc1`, the GI50 in the test on LXFL 529 is 1.6 µM (inactive); with DLD-1, 1.66 µM (inactive); with M19-MEL, 3.82 µM (inactive); with KM-20L2, 0.489 µM (active); in the test with SNB-78, 12.8 µM (inactive); in the test with HOP-18, 22.1 µM (inactive).

With `CC1=CC(=O)CC(C)(C)C1/C=C/C(C)=C/C=C/C(C)=C/C=C/C=C(C)/C=C/C=C(C)/C=C/C1C(C)=CC(=O)CC1(C)C` (centres undefined), the GI50 in the test with Hs-578T is 30.8 µM (inactive).

As for `CC1=C(C(=O)NNC(=O)c2ccccc2O)CC(C(=O)NNC(=O)c2ccccc2O)=C(C)N1`, in the test with Hs-578T, the GI50 was 0.197 µM (active).

Turning to `C=CCC12CC(=O)CCC1c1ccc(OC)cc1C2=O` (centres undefined), the GI50 in the test with LXFL 529, with DLD-1, in the test with M19-MEL, in the test with KM-20L2, with SNB-78 and with HOP-18 was > 100 µM (inactive) each time.

In the case of `COc1cccc(/N=C/c2cc(OC)c(OC)c(OC)c2)c1`, the GI50 in the test with Hs-578T was > 100 µM (inactive).

In the case of `Nc1ccc2c(c1)C(=O)c1c(F)cccc1-2`, in the test with Hs-578T, the GI50 was 27.9 µM (inactive).

For the compound `CCCCNC(=S)N/N=C/c1cccc(C)n1`, the GI50 in the test with Hs-578T was > 100 µM (inactive).

With `O=C1NC(=O)C23C(=O)NC(=O)C12C1C=CC3CC1` (centres undefined), the GI50 in the test with Hs-578T was > 10 µM (inactive).

For the compound `CC(C)(C)c1cc(COc2c3sc(=S)sc3c(OCc3cc(C(C)(C)C)cc(C(C)(C)C)c3)c3sc(=S)sc23)cc(C(C)(C)C)c1`, the GI50 in the test on LXFL 529, with DLD-1, with M19-MEL, with KM-20L2, in the test with XF498 and in the test on HOP-18 was > 100 µM (inactive) in each case.

Turning to `Cn1c(=O)c2c(nc3n(CC(O)CCl)c(=O)ccn23)n(C)c1=O` (centres undefined), the GI50 in the test on Hs-578T was 41.4 µM (inactive).

For `NNc1nncc2[nH]cnc12`, the GI50 with Hs-578T is > 100 µM (inactive).

Consider `c1cnc2c(c1)-n1cccc1C1(CCSC1)NN2` (centres undefined), for which the GI50 is > 100 µM (inactive) with DLD-1; > 100 µM (inactive) in the test on M19-MEL; > 100 µM (inactive) in the test with SNB-78; > 100 µM (inactive) in the test with XF498; 28.4 µM (inactive) with HOP-18.

Consider `C=C1CN=C(Nc2ccc(F)cc2F)S1`, for which the GI50 with Hs-578T was > 100 µM (inactive).

In the case of `C/C(=N/NC(=S)Nc1cccc(C)c1)c1ccccn1`, the GI50 in the test on Hs-578T is 3.82 µM (inactive).

`O=c1[nH]n(Cc2ccccc2CCl)c2ccc([N+](=O)[O-])cc12`: the GI50 in the test with Hs-578T was 85.5 µM (inactive).

Turning to `COCCOCc1nc(C#N)c(N)o1`, the GI50 with Hs-578T was > 100 µM (inactive).

With `COC(=O)c1cc(O)c(O)c(O)c1-c1c(O)c(O)c(O)c(SC[C@H](NC(=O)OCc2ccccc2)C(=O)OCc2ccccc2)c1C(=O)OC`, the GI50 in the test on Hs-578T was 29.6 µM (inactive).

Consider `CCOC(=O)C1C(c2ccc3c(c2)OCO3)c2c(n[nH]c2O)CC1(C)O` (centres undefined), for which the GI50 with Hs-578T is > 100 µM (inactive).

`Cc1c(Br)c(Br)c(C)[s+]1[O-]`: the GI50 with Hs-578T is 28.5 µM (inactive).

As for `O=C1NC(NNc2ccccc2)=N/C1=C\c1ccco1`, in the test on Hs-578T, the GI50 is 26.2 µM (inactive).

Take `CCOC(=O)N[C@@H]1C2CC(=O)C(O2)[C@@H]1OC` (some centres undefined): the GI50 in the test with DLD-1, with M19-MEL, in the test with KM-20L2, in the test on SNB-78 and with HOP-18 was > 100 µM (inactive) throughout.

On to `CC(=N\N=C\c1ccccn1)/C(C)=N/N=C(C)/C(C)=N/N=C/c1ccccn1`, for which the GI50 in the test with Hs-578T was > 100 µM (inactive).

With `NCC(=O)OCN1C(=O)C2C3C=CC(C2C1=O)C1C2C(=O)N(COC(=O)CN)C(=O)C2C31` (centres undefined), the GI50 in the test with LXFL 529 was 22.7 µM (inactive); in the test with DLD-1 it was 24.3 µM (inactive); in the test with M19-MEL it was 24.8 µM (inactive); with KM-20L2, 24.3 µM (inactive); with SNB-78 it was 42 µM (inactive); with XF498 it was 17.9 µM (inactive). Further, the GI50 in the test with HOP-18 is 25.6 µM (inactive).

`Cc1cnc2c(c1)C(=O)C1=C(C2=O)C2OC(=O)CC2OC1(C)C` (centres undefined): in the test with Hs-578T, the GI50 is 0.301 µM (active).

As to `COc1ccc(C2(O)c3ccccc3C(=O)N(C)C2(O)c2ccc(OC)cc2)cc1` (centres undefined), in the test with Hs-578T, the GI50 is 0.396 µM (active).

For the compound `O=C([C@H](O)[C@@H](O)c1cccc(Cl)c1)C12CC3CC(CC(C3)C1)C2`, in the test with Hs-578T, the GI50 was 2.61 µM (inactive).

Turning to `CC1(C)N=C2C(=O)c3c([nH]c4ccccc34)[C@]3(C)CCC1CC23` (some centres undefined), in the test on Hs-578T, the GI50 was > 6.25 µM (inactive).

Turning to `COC(=O)c1nc2c(C)c(O)c(O)c([C@H](C)CCC=C(C)C)c2o1`, in the test with Hs-578T, the GI50 is 30.5 µM (inactive).

As to `Nc1ccccc1OCCCOc1ccccc1N`, the GI50 with Hs-578T is > 100 µM (inactive).

For `CC(=O)c1c(C)cn(S(=O)(=O)NC(=O)Nc2nncs2)c1C`, the GI50 in the test on Hs-578T was > 100 µM (inactive).

Turning to `COc1ccc(NC(=S)N/N=C(\c2ccccc2)c2ccccn2)cc1`, the GI50 with Hs-578T was 10.3 µM (inactive).

For the compound `CC(C)OP(=O)(OC(C)C)/C(=N/Nc1ccc([N+](=O)[O-])cc1)NCCN/C(=N\Nc1ccc([N+](=O)[O-])cc1)P(=O)(OC(C)C)OC(C)C`, the GI50 in the test on LXFL 529 is 3.17 µM (inactive); in the test on DLD-1 it was 4.71 µM (inactive); in the test with M19-MEL it was 5.85 µM (inactive); in the test with KM-20L2, 4.52 µM (inactive); in the test with XF498, 3.18 µM (inactive).

`N#CC1(c2nc3ccccc3o2)C(=O)C(=O)N(c2ccc(Cl)c(Cl)c2)C(=O)C1=O`: the GI50 is 58.1 µM (inactive) in the test on LXFL 529; > 100 µM (inactive) in the test on DLD-1; > 100 µM (inactive) with KM-20L2; > 100 µM (inactive) in the test with SNB-78; > 100 µM (inactive) in the test on XF498; > 100 µM (inactive) with HOP-18.

`C/C=C/C/C=C/CCC(=O)C1OC1C(N)=O` (centres undefined): the GI50 in the test with Hs-578T was 22.8 µM (inactive).

For `O=C1c2ccccc2-c2c1c1ccccc1c(=O)n2Cc1ccccc1`, in the test with Hs-578T, the GI50 is 43.5 µM (inactive).

As for `C=C1C(=O)O[C@H]2[C@@H](O)[C@H](C)CCC/C(C)=C/CC[C@@]3(C)O[C@@H]3C[C@@H]12`, the GI50 in the test with Hs-578T is 14.7 µM (inactive).

For `S=C(N/N=C(/c1ccccc1)c1ccccn1)Nc1ccc(Cl)cc1`, in the test with Hs-578T, the GI50 was 0.873 µM (active).

As for `COC(=O)C(Cc1nc2ccccc2nc1O)C(=O)C(=O)Nc1ccc(OC)cc1[N+](=O)[O-]` (centres undefined), the GI50 with LXFL 529, in the test with M19-MEL, in the test on KM-20L2, in the test with SNB-78 and with XF498 was > 100 µM (inactive) in each case.

`Cc1ccc(NC(=O)C(=O)C(C#N)c2nc(-c3ccc(-c4ccccc4)cc3)cs2)c(C)c1` (centres undefined): the GI50 with LXFL 529, with DLD-1, in the test on M19-MEL, in the test on KM-20L2, in the test with SNB-78 and with HOP-18 was > 100 µM (inactive) in each case.

Turning to `C/C(CC(O)(/C=N/O)c1ccccc1)=N/O` (centres undefined), in the test on Hs-578T, the GI50 was > 100 µM (inactive).

As for `Cc1ccc(NC(=O)CC(=O)N2N=C(N(CCC#N)c3cccc(C)c3)CC2c2ccccc2)cc1` (centres undefined), the GI50 with LXFL 529, in the test with DLD-1, in the test with M19-MEL, in the test on KM-20L2, in the test with SNB-78 and in the test on HOP-18 was > 100 µM (inactive) in each case.

As for `CCCCOCCOC1=C(Cl)C(=O)c2c(O)ccc(O)c2C1=O`, the GI50 with Hs-578T is 2.49 µM (inactive).

Take `O=c1c(Cl)cc2nc3ccccc3sc-2c1Cl`: the GI50 with Hs-578T is 22 µM (inactive).

As to `CC(C)N1C(C)[C@@H](c2ccccc2)O[P@@]1(=O)CC1=CCCCC1` (some centres undefined), the GI50 in the test with LXFL 529, in the test on DLD-1, with M19-MEL, in the test with KM-20L2, in the test on XF498 and in the test on HOP-18 was > 100 µM (inactive) throughout.

For the compound `NC(CCC(=O)Nc1ccc(O)cc1)C(=O)O` (centres undefined), the GI50 in the test on LXFL 529, with DLD-1, in the test on KM-20L2, with SNB-78, in the test on XF498 and with HOP-18 was > 100 µM (inactive) throughout.

Regarding `CC1(C)COC(c2cccc(C(O)c3ccc(Cl)cc3)c2)=N1` (centres undefined), in the test on Hs-578T, the GI50 was 23.4 µM (inactive).

With `O=C(NCCc1ccccc1)c1cc(/C=C/c2cc(O)ccc2O)ccc1O`, the GI50 in the test with Hs-578T is 5.2 µM (inactive).

With `Nc1ccc(N)c2c1C(=O)c1c(N)ccc(N)c1C2=O`, the GI50 was 78.7 µM (inactive) with DLD-1; > 71.1 µM (inactive) in the test with M19-MEL; > 100 µM (inactive) with KM-20L2; 78.5 µM (inactive) in the test with SNB-78; > 54.5 µM (inactive) in the test with XF498; 16.3 µM (inactive) with HOP-18.

As to `CC(=O)NC(CS)C(=O)NC(CO)C(=O)NC(CO)C(=O)NC(Cc1c[nH]c2ccccc12)C(=O)N1CCCC1C(=O)NC(CO)C(=O)NC(Cc1c[nH]c2ccccc12)C(=O)NC(Cc1c[nH]cn1)C(=O)NC(CO)C(=O)NC(Cc1c[nH]c2ccccc12)C(=O)NCC(=O)NCC(=O)NC(CC(=O)O)C(=O)NC(CCC(N)=O)C(=O)NC(CCCCN)C(=O)NC(Cc1ccccc1)C(=O)NC(CCCNC(=N)N)C(=O)NC(CCCCN)C(N)=O` (centres undefined) (Ac-CSSWPSWHSWGGDQKFRK-NH2; configuration not given here), in the test on Hs-578T, the GI50 is > 25 µM (inactive).

For `CN(Cc1ccccc1)C(=S)S` [SODIUM BENZYL(METHYL)CARBAMODITHIOATE], the GI50 in the test with Hs-578T is 78.7 µM (inactive).
